# Test results reported in patent US20230255953A1, “USE OF ROLUPERIDONE IN PREVENTING RELAPSE IN SCHIZOPHRENIA PATIENTS” (Minerva Neurosciences, Inc., priority 2022, published 2023).
# Key:
# [1] = tested on: patients with negative symptoms of schizophrenia; experiment: Study #1 (MIN-101C03): rate of relapse; type: in vivo, human; conditions: for Rate of relapse (%) / Rate of relapse (number of patients): DB period, MIN-101C03
# Description: (§1) “Time to relapse” in the DB period is defined as the number of days from Day 1 to the date of early trial termination due to relapse. […] Treatment differences in time to relapse in the DB period were analyzed using a Cox-regression model with treatment group and Baseline PANSS total score as covariates. For the analysis of the OL period, this analysis was repeated to analyze treatment differences in time to relapse in the study. For the OL period analysis, patients who were not observed to relapse in the study were censored on the date on which they ended the study. Kaplan-Meier plots of time to relapse in the DB period, OL period, and in the study were generated.
# (§2) In some embodiments, for any of the methods disclosed herein, a relapse refers to a patient who is terminated early during treatment (or a study trial) due to worsening of psychosis or an adverse event or generalized symptom in Table 1.
# (§3) Phase 2b Study #1 (also referred to herein as “MIN-101C03”) was a Phase 2b, double-blind (“DB”), placebo-controlled, randomized, multicenter 12-week study to evaluate the efficacy, safety, and tolerability of Roluperidone in patients ≥18 years to ≤60 years with negative symptoms of schizophrenia, followed by a 24-week open-label (“OL”) extension. The primary objective of the study was to evaluate the efficacy of Roluperidone compared to placebo in improving the negative symptoms of schizophrenia as measured by the change from Baseline in the PANSS negative factor score of the PSM (“PANSS PSM”) over 12 weeks of treatment.
# (§4) The study consisted of a pretreatment screening period of up to 28 days (including washout), a 12-week, DB, placebo-controlled period, and a 24-week OL period. Eligible patients (who were symptomatically stable for at least 3 months and had scores of at least 20 on the PANSS negative subscale score) were randomized in a 1:1:1 ratio to receive oral Roluperidone (a modified-release, “MR”, formulation) 32 mg QD, Roluperidone 64 mg QD, or placebo for 12 weeks. […] During the 24-week, OL treatment extension period, patients who were initially randomized to Roluperidone 32 mg or 64 mg continued on the same dose, while patients who were initially randomized to placebo crossed over to Roluperidone 32 mg or 64 mg in a 1:1 ratio.
# [2] = tested on: patients with negative symptoms of schizophrenia; experiment: Study #2 (MIN-101C07): rate of relapse and time to relapse; type: in vivo, human; conditions: for Patients who experienced relapse (%) / Patients who experienced relapse (number) / Days to relapse (Kaplan-Meier estimates), Mean / Days to relapse (Kaplan-Meier estimates), Median: ITT, MIN-101C07
# Description: as §1, §2
# Study #2 (also referred to as “MIN101C07”) was a Phase 3, randomized, DB, placebo-controlled, parallel-group 12-week study to evaluate the efficacy and safety of Roluperidone in patients ≥18 years to ≤55 years with negative symptoms of schizophrenia, followed by a 40-week OL extension. The study consisted of a pretreatment screening period of up to 28 days (including an antipsychotic medication washout period), a 12-week, DB, placebo-controlled period, and a 40-week OL period. Eligible patients (with moderate to severe negative symptoms of schizophrenia and stable positive symptoms but without severe symptoms of suspiciousness, agitation, hostility, uncooperativeness, or poor impulse control) were randomized 1:1:1 to receive Roluperidone 32 mg QD, Roluperidone 64 mg QD (GR01/B formulation, see U.S. Pat. No. 11,464,744), or placebo, orally, for 12 weeks. […] During the 40-week OL treatment extension, patients who were initially randomized to Roluperidone 32 mg or 64 mg continued treatment with the same dose, while patients who were initially randomized to placebo crossed over to Roluperidone 32 mg or 64 mg in a 1:1 ratio.
# [3] = tested on: patients with negative symptoms of schizophrenia; experiment: Study #1 (MIN-101C03): Calgary Depression Scale for Schizophrenia; type: in vivo, human; conditions: Week 12 DB, ITT
# Excerpt: as §3, §4
# serotoninergic 5-HT2A = serotoninergic 5-HT2A (Homo sapiens, UniProt P28223); conditions: background statement; cited from earlier work
# serotoninergic 5-HT2A, sequence (P28223 whole entry): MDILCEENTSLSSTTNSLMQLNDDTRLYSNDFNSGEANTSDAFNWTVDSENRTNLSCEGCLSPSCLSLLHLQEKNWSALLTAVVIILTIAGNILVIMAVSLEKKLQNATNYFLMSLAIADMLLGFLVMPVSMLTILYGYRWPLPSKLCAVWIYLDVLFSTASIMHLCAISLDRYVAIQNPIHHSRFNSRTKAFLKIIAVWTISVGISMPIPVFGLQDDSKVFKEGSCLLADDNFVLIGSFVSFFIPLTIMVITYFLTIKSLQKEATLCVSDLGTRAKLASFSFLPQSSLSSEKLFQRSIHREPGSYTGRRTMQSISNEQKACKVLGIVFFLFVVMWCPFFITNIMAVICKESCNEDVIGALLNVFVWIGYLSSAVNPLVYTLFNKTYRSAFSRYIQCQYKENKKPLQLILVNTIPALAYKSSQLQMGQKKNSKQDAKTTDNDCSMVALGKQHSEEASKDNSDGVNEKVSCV
# [4] = Placebo in DB to 32 mg in OL (N = 59), OL period
# [5] = Roluperidone Total 32+64 mg (N = 341), DB period
# [6] = Roluperidone Total 32+64 mg, DB period
# [7] = Roluperidone throughout, Total (N = 211), OL period
substance,measurement,setting,value
"1H-Isoindol-1-one,2-[ [1-[2-(4-fluorophenyl)-2-oxoethyl]-4-piperidinyl]methyl]-2,3-dihydro-, hydrochloride, hydrate (1:1:2) [Roluperidone]",Rate of relapse (%),[1]; 32 mg,7%
same,Rate of relapse (number of patients),[1]; 32 mg,5
same,Rate of relapse (%),[1]; 64 mg,9%
same,Rate of relapse (number of patients),[1]; 64 mg,7
same,Relapse by study phase,"[1]; Study #1 (n = 244), all subjects, Double-blind (12-weeks)",11.5%
same,Relapse overall (discontinued because of positive symptoms worsening),"[1]; Study #1 (n = 244), Overall (over 36 weeks)",15.2%
same,Relapse by study phase,"[1]; Study #1, Open-label (over 24 weeks)",6%
same,Patients who experienced relapse (%),"[2]; 32 mg (N = 170), DB period",11%
same,Patients who experienced relapse (number),"[2]; 32 mg (N = 170), DB period",18
same,Patients who experienced relapse (number),"[2]; 32 mg throughout the study (N = 107), OL period",9
same,"Days to relapse (Kaplan-Meier estimates), Mean","[2]; 32 mg throughout the study, OL period",232.4 days
same,"Days to relapse (Kaplan-Meier estimates), Mean","[2]; 32 mg, DB period",124.9 days
same,"Days to relapse (Kaplan-Meier estimates), Median","[2]; 32 mg, DB period",137.0 days
same,Patients who experienced relapse (%),"[2]; 64 mg (N = 171), DB period",5%
same,Patients who experienced relapse (number),"[2]; 64 mg (N = 171), DB period",9
same,Patients who experienced relapse (number),"[2]; 64 mg throughout the study (N = 104), OL period",10
same,"Days to relapse (Kaplan-Meier estimates), Mean","[2]; 64 mg throughout the study, OL period",186.7 days
same,"Days to relapse (Kaplan-Meier estimates), Mean","[2]; 64 mg, DB period",82.1 days
same,Patients who experienced relapse (%),"[2]; Overall (N = 333), OL period",(8%)
same,Patients who experienced relapse (number),"[2]; Overall (N = 333), OL period",25
same,"Days to relapse (Kaplan-Meier estimates), Mean","[2]; Overall, OL period",254.1 days
same,Patients who experienced relapse (%),[2]; [4],(10%)
same,Patients who experienced relapse (number),[2]; [4],6
same,"Days to relapse (Kaplan-Meier estimates), Mean","[2]; Placebo in DB to 32 mg in OL, OL period",253.6 days
same,Patients who experienced relapse (number),"[2]; Placebo in DB to 64 mg in OL (N = 63), OL period",0
same,Patients who experienced relapse (number),"[2]; Placebo in DB to Roluperidone in OL, Total (N = 122), OL period",6
same,"Days to relapse (Kaplan-Meier estimates), Mean","[2]; Placebo in DB to Roluperidone in OL, Total, OL period",260.4 days
same,Patients who experienced relapse (%),[2]; [5],8%
same,Patients who experienced relapse (number),[2]; [5],27
same,"Days to relapse (Kaplan-Meier estimates), Mean",[2]; [6],127.8 days
same,"Days to relapse (Kaplan-Meier estimates), Median",[2]; [6],137.0 days
same,Patients who experienced relapse (%),[2]; [7],(9%)
same,Patients who experienced relapse (number),[2]; [7],19
same,"Days to relapse (Kaplan-Meier estimates), Mean","[2]; Roluperidone throughout, Total, OL period",230.9 days
same,Relapse by study phase,"[2]; Study #2 (n = 513), all subjects, Double-blind (12-weeks)",6.8%
same,Relapse overall (discontinued because of positive symptoms worsening),"[2]; Study #2 (n = 513), Overall (over 52 weeks)",11.7%
same,Relapse by study phase,"[2]; Study #2, Open-label (over 40 weeks)",7.5%
same,Change from Baseline LS Mean: Calgary Depression Scale for Schizophrenia,[3]; 32 mg QD,−0.37
same,Effect Size vs Placebo: Calgary Depression Scale for Schizophrenia,[3]; 32 mg QD,0.25
same,Change from Baseline LS Mean: Calgary Depression Scale for Schizophrenia,[3]; 64 mg QD,−0.71
same,Effect Size vs Placebo: Calgary Depression Scale for Schizophrenia,[3]; 64 mg QD,0.46
same,Antagonistic activity,serotoninergic 5-HT2A,antagonistic activities
